From patent US20150086530A1, “DOSING REGIMENS FOR THE TREATMENT OF POMPE DISEASE” (Amicus Therapeutics, Inc., priority 2012, published 2015)
Read-outs that look alike come from different tables or passages of the source.

Key:
[1] = AT2220 concentration in muscle biopsies by LC-MS/MS in Pompe patients; type: in vivo, human; conditions: for muscle concentrations from Day 3 or Day 7 biopsies: 50 mg and 100 mg, lower limit of quantitation 8 ng/g; for concentration at 7 day / concentration at 3 day: human, muscle, oral, read-out: Muscle AT2220 Conc
Text: GAA enzyme activity will be examined in muscle biopsy samples. One piece of muscle tissue will be removed as described in Table 1. GAA activity in muscle will be determined by a validated assay measuring enzyme activity using 4-MUG, with and without Con A. GAA protein levels will be measured by Western blotting using anti-human GAA antibody. 1-deoxynojirimycin hydrochloride concentrations in muscle samples collected in Period 2 will be determined using a validated LC-MS/MS assay.

[2] = Cmax following 30 mg/kg oral AT2220 or AT2221 in mice; type: in vivo; conditions: mouse, plasma
[3] = Thigh muscle MRI before and after ERT; type: in vivo; conditions: at one year of ERT

With `OC[C@H]1NC[C@H](O)[C@@H](O)[C@@H]1O` [AT2220, (2R,3R,4R,5S)-2-hydroxymethyl-piperidine-3,4,5-triol] as the compound, how does the “muscle concentrations from Day 3 or Day 7 biopsies” value [1] read?
Its value is “either below or near the lower limit of quantitation”.

What about the “muscle concentrations from Day 3 or Day 7 biopsies” value ([1]; listed as 1-DNJ-HCl) of the same compound?
The value was “either below or just above the lower limit of quantification”.

And the “Muscle AT2220 Conc” value ([1]; Cohort 2, 100 mg AT2220, Period 2, biopsy Day 3, individual subjects, LLOQ = 8.0 ng/g (16.0 or […] for diluted samples))?
The value was “BLQ^c”.

And the “muscle AT2220 concentrations” value ([1]; Cohort 3 (250 mg) vs lower doses, preliminary)?
Its value is “Dose-related increases”.

What about the “subjects with a quantifiable AT2220 concentration in muscle” value ([1]; Cohort 3 (250 mg), biopsies 3 or 7 days post dose, preliminary) of the same compound?
Its value is 4 of 6.

What about the “Muscle AT2220 Conc” value ([1]; Cohort 3, 250 mg AT2220, Period 2, biopsy Day 7, individual subjects, LLOQ = 8.0 ng/g (16.0 or […] for diluted samples)) of the same compound?
The value was 27.9 ng/g.

And the “Muscle AT2220 Conc” value ([1]; Patient D, 50 mg, Period 2, Day 7, LLOQ = 8.0 ng/g)?
The value was “BLQ”.

What about the “Muscle AT2220 Conc” value ([1]; Patient F, 100 mg, Period 2, Day 7, sample diluted 2-fold, LLOQ = […]) of the same compound?
The value was “BLQ^b”.

And the “Muscle AT2220 Conc” value ([1]; Patient G, 100 mg, Period 2, Day 7, LLOQ = 8.0 ng/g)?
The value was “BLQ”.

And the “Muscle AT2220 Conc” value ([1]; Patient H, 100 mg, Period 2, Day 3, sample diluted 2-fold, LLOQ = […])?
Its value is “BLQ^b”.

What about the “Muscle AT2220 Conc” value ([1]; Patient I, 100 mg, Period 2, Day 7, sample diluted 2-fold, LLOQ = […]) of the same compound?
Its value is “BLQ^b”.

And the “Muscle AT2220 Conc” value ([1]; Patient J, 100 mg, Period 2, Day 3, sample diluted 3-fold, LLOQ = […])?
Its value is “BLQ^c”.

And the clearance from muscle ([1]; all four cohorts, Day 7)?
The clearance from muscle was “cleared from muscle to near-undetectable levels by Day 7”.

And the concentration at 7 day ([1]; 50 mg, Cohort 1, 50 mg AT2220, Period 2, biopsy Day 7, individual subjects, LLOQ = 8.0 ng/g (16.0 or […] for diluted samples))?
The concentration at 7 day was 13.1 ng/g.

What about the concentration at 7 day ([1]; 50 mg, Patient A, 50 mg, Period 2, Day 7, LLOQ = 8.0 ng/g) of the same compound?
The concentration at 7 day was 11.8 ng/g.

What about the concentration at 7 day ([1]; 50 mg, Patient B, 50 mg, Period 2, Day 7, LLOQ = 8.0 ng/g) of the same compound?
Its concentration at 7 day is 10 ng/g.

What about the concentration at 7 day ([1]; 50 mg, Patient C, 50 mg, Period 2, Day 7, LLOQ = 8.0 ng/g) of the same compound?
The concentration at 7 day was 13.1 ng/g.

What about the concentration at 3 day ([1]; 100 mg, Cohort 2, 100 mg AT2220, Period 2, biopsy Day 3, individual subjects, LLOQ = 8.0 ng/g (16.0 or […] for diluted samples)) of the same compound?
The concentration at 3 day was 17.8 ng/g.

And the concentration at 3 day ([1]; 100 mg, Patient E, 100 mg, Period 2, Day 3, LLOQ = 8.0 ng/g)?
Its concentration at 3 day is 17.8 ng/g.

What about the concentration at 3 day ([1]; 250 mg, Cohort 3, 250 mg AT2220, Period 2, biopsy Day 3, individual subjects, LLOQ = 8.0 ng/g (16.0 or […] for diluted samples)) of the same compound?
The concentration at 3 day was 54.4 ng/g.

What about the concentration at 7 day ([1]; 250 mg, Cohort 3, 250 mg AT2220, Period 2, biopsy Day 7, individual subjects, LLOQ = 8.0 ng/g (16.0 or […] for diluted samples)) of the same compound?
Its concentration at 7 day is 28.1 ng/g.

What about the Cmax [2] of the same compound?
The Cmax was roughly 40 µM.

With “rhGAA: human recombinant acid α-glucosidase; alglucosidase alfa (Myozyme/Lumizyme) enzyme replacement therapy given by intravenous infusion” as the compound, how does the “decrease in muscle mass in posterior thigh” value [3] read?
The value was 11%.

What about the “decrease in muscle mass in the anterior thigh” value [3] of the same compound?
Its value is 9.8%.

And the “increase in intramuscular fat accumulation” value [3]?
Its value is 8.9%.

What about the subcutaneous fat [3] of the same compound?
Its subcutaneous fat is 6.6%.
